In ChEMBL document CHEMBL1131362, “Synthesis and anticholinesterase activity of huperzine A analogues containing phenol and catechol replacements for the pyridone ring” (Bioorg Med Chem Lett, 1998):
Activity calls are given as the source filed them. The rule behind the calls is not given here.

Tests used:
[1] = molecular target: T1, Acetylcholinesterase (Bos taurus) (UniProt P23795); test: Compound was tested for acetylcholinesterase inhibitory activity at concentration uM; Inactive
T1 sequence (whole entry): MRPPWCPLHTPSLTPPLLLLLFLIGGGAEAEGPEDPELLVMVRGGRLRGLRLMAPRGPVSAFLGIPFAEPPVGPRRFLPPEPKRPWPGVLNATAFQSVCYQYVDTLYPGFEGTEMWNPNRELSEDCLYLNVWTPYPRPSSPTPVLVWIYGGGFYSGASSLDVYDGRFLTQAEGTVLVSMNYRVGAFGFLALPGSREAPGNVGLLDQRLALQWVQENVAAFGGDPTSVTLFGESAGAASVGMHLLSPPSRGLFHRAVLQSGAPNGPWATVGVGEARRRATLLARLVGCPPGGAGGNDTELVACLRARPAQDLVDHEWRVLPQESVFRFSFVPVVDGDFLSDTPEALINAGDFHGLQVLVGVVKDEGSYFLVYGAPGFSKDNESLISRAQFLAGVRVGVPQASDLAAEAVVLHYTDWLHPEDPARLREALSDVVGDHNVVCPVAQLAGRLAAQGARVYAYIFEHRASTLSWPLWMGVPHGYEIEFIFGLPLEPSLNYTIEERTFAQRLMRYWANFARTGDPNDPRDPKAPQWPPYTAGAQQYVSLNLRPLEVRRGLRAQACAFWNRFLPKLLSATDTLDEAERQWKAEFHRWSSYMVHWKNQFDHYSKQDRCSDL

[2] = molecular target: T1, Acetylcholinesterase (Bos taurus); test: Compound was tested for acetylcholinesterase inhibition at concentration uM; No Inhibition

SMILES | inhibition [1] | inhibition [2]
C/C=C1\C2C=C(C)C[C@]1(N)c1ccc(O)cc1C2 | inactive | –
C/C=C1\C2C=C(C)C[C@]1(N)c1ccc(O)c(O)c1C2 | – | inactive
